This is an account of results in PubChem BioAssay (NCI).

Values joined by “and” are separate entries in the source; they are usually repeats but may differ in a detail not shown here. Equal entries are not always repeated.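 All cell lines were grown in 96-well plates and treated with compound for 48 hours. Abbreviation: GI50, concentration required for 50% inhibition of growth. TGI denotes the concentration required for complete inhibition of growth.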

Some test systems named below: HCC-2998 colon; NCI-H226 lung; CAKI-1 renal; IGROV1 ovarian; SK-MEL-5 melanoma; U251 CNS; SNB-75 CNS; SNB-19 CNS; SF-539 CNS.
Experiment in all cases: inhibition of tumour cell growth, NCI panel, 48 h

Consider `CC(C)c1cc(C(C)C)c(S(=O)(=O)N=[N+]=[N-])c(C(C)C)c1`, for which the TGI in the assay on HCC-2998 colon, in the assay on NCI-H226 lung, in the assay on CAKI-1 renal, in the assay on IGROV1 ovarian, with SK-MEL-5 melanoma and in the assay with U251 CNS was greater than 100 µM each time. Further, the TGI in the assay on SNB-75 CNS, in the assay on SNB-19 CNS and in the assay on SF-539 CNS was greater than 100 µM each time.

With `COc1ccc(C2=Nc3ccccc3SC(C)C2)cc1OC` (configuration not stated), the TGI stood at 32.6 µM in the assay on HCC-2998 colon; 36.6 µM with NCI-H226 lung; 50.4 µM in the assay on CAKI-1 renal; 29.7 µM in the assay with IGROV1 ovarian; 37 µM with SK-MEL-5 melanoma; 30.9 µM in the assay with U251 CNS. Besides, the figures for the TGI in the assay on SNB-75 CNS and in the assay on SNB-19 CNS were 35 µM and 40.2 µM, respectively.

Take `COc1cc(/C=C/c2ccc(O)c(OC)c2)cc(OC)c1`: the TGI was greater than 100 µM in the assay on HCC-2998 colon; greater than 100 µM in the assay on CAKI-1 renal; greater than 100 µM with IGROV1 ovarian; 77.7 µM with SK-MEL-5 melanoma; greater than 100 µM in the assay with U251 CNS; 97 µM in the assay on SNB-75 CNS. In the assay with SNB-19 CNS, this compound came in with a TGI greater than 100 µM.

For the compound `NC1c2ccccc2Nc2ccccc21`, the TGI in the assay on HCC-2998 colon is 18.1 µM; in the assay on NCI-H226 lung, 27.9 µM; in the assay on CAKI-1 renal, 17.4 µM; in the assay with IGROV1 ovarian, 21.7 µM; in the assay with SK-MEL-5 melanoma, 17.1 µM; in the assay with SNB-75 CNS, 24.4 µM. In the assay on SNB-19 CNS, this compound showed a TGI of 27.7 µM.

In the case of `Cc1ccc2nc(NC(=O)C(=O)C(C#N)c3ccc(Cl)cc3)sc2c1` (configuration not stated), the TGI in the assay on HCC-2998 colon, in the assay on NCI-H226 lung, in the assay on CAKI-1 renal, in the assay with IGROV1 ovarian, in the assay with U251 CNS and with SNB-75 CNS was greater than 50 µM throughout. Besides, the TGI in the assay with SNB-19 CNS and in the assay on SF-539 CNS was greater than 50 µM throughout.

Take `COc1ccc2oc3c(OC)c(OC)c(OC)cc3c(=O)c2c1`: the TGI was greater than 100 µM in the assay on HCC-2998 colon; greater than 100 µM with CAKI-1 renal; greater than 100 µM in the assay with IGROV1 ovarian; greater than 100 µM with SK-MEL-5 melanoma; greater than 100 µM with U251 CNS; 84.5 µM in the assay on SNB-75 CNS. The TGI with SNB-19 CNS and in the assay with SF-539 CNS was greater than 100 µM in each case.

On to `N#CC(C(=O)CCCC(=O)Nc1ccc(Cl)cc1Cl)c1ccccc1` (configuration not stated), for which the TGI with HCC-2998 colon, with NCI-H226 lung, in the assay with CAKI-1 renal, with IGROV1 ovarian, in the assay on SK-MEL-5 melanoma and in the assay on U251 CNS was greater than 100 µM in each case. For the same compound, the TGI with SNB-19 CNS and in the assay with SF-539 CNS was greater than 100 µM in each case.

Consider `Cc1ccc(N=C[N-]c2ccc(C)cc2)cc1.Cc1ccc(N=C[N-]c2ccc(C)cc2)cc1.O=C([O-])C(F)(F)F.O=C([O-])C(F)(F)F.[OH3+].[OH3+].[Rh+2].[Rh+2]`, for which the GI50 in the assay on HCC-2998 colon is 36.5 µM; with NCI-H226 lung, 89.6 µM; in the assay on CAKI-1 renal it was greater than 100 µM; with IGROV1 ovarian, 26.6 µM; in the assay with SK-MEL-5 melanoma, 30.7 µM; in the assay on U251 CNS, 25.8 µM. Besides, the GI50 in the assay with SNB-75 CNS is 16.8 µM; in the assay with SNB-19 CNS it was 58.6 µM; in the assay with SF-539 CNS, 26.6 µM. In addition, the TGI in the assay on HCC-2998 colon was greater than 100 µM; in the assay on NCI-H226 lung it was greater than 100 µM; in the assay on CAKI-1 renal, greater than 100 µM; in the assay on IGROV1 ovarian, 72.2 µM; in the assay on SK-MEL-5 melanoma, greater than 100 µM; in the assay on U251 CNS, 72.3 µM. For the same compound, the TGI was 53.9 µM in the assay on SNB-75 CNS, greater than 100 µM with SNB-19 CNS and 78.7 µM in the assay on SF-539 CNS.

Regarding `COc1cc2c(c(OC)c1OC)-c1ccc(SC)c(=O)cc1[C@@H](NCc1ccc([N+](=O)[O-])cc1)CC2`, the TGI with HCC-2998 colon was 0.0105 µM; in the assay on NCI-H226 lung, 0.0134 µM; with CAKI-1 renal, greater than 100 µM; with IGROV1 ovarian, greater than 100 µM; with SK-MEL-5 melanoma it was 17.5 µM; in the assay with SNB-75 CNS, greater than 100 µM. In addition, the TGI in the assay on SNB-19 CNS was greater than 100 µM; in the assay on SF-539 CNS, 0.00672 µM and 0.0112 µM.

Turning to `CC(C)c1cccc(C(C)C)c1N1C(=O)C(=O)C(c2nc3ccccc3o2)C(=O)C1=O`, the TGI in the assay on HCC-2998 colon, in the assay with NCI-H226 lung, in the assay with CAKI-1 renal, with IGROV1 ovarian, in the assay on SK-MEL-5 melanoma and in the assay on U251 CNS was greater than 100 µM in each case. The TGI with SNB-75 CNS, in the assay with SNB-19 CNS and with SF-539 CNS was greater than 100 µM in each case.

Consider `CC1=C(C(=O)Nc2ccccc2)C(c2ccccc2Cl)C(C(=O)Nc2ccccc2)=C(C)N1`, for which the TGI with HCC-2998 colon came to 43.5 µM; in the assay on NCI-H226 lung, 59 µM; in the assay with CAKI-1 renal, 57.2 µM; in the assay on IGROV1 ovarian it was 65.4 µM; in the assay on SK-MEL-5 melanoma it was 29.8 µM; with U251 CNS it was 35.8 µM. Further, the TGI is 76.4 µM in the assay on SNB-75 CNS, 92.7 µM with SNB-19 CNS and 37.6 µM in the assay on SF-539 CNS.

For `O=C(O)CCNS(=O)(=O)c1ccc2ccccc2c1`, the TGI in the assay on HCC-2998 colon, with NCI-H226 lung, in the assay with CAKI-1 renal, in the assay on IGROV1 ovarian, with SK-MEL-5 melanoma and in the assay with U251 CNS was greater than 100 µM in each case. For the same compound, the TGI in the assay with SNB-75 CNS, in the assay with SNB-19 CNS and in the assay on SF-539 CNS was greater than 100 µM throughout.

Take `Cc1c(C(=O)O)n(C)c(=O)n(C)c1=O`: the TGI in the assay with HCC-2998 colon, in the assay with NCI-H226 lung, with CAKI-1 renal, with IGROV1 ovarian, in the assay with SK-MEL-5 melanoma and in the assay with U251 CNS was greater than 100 µM in each case. The TGI with SNB-75 CNS, with SNB-19 CNS and in the assay on SF-539 CNS was greater than 100 µM throughout.

As for `CC1=C(SC#N)S(=O)(=O)N(c2ccccc2)C(C)=C1SC#N`, the TGI is greater than 100 µM in the assay with HCC-2998 colon; 81.6 µM in the assay on NCI-H226 lung; greater than 100 µM in the assay with CAKI-1 renal; greater than 100 µM in the assay on IGROV1 ovarian; greater than 100 µM with SK-MEL-5 melanoma; 35.4 µM in the assay with U251 CNS. Also, the TGI in the assay with SNB-75 CNS was 63.9 µM; with SNB-19 CNS, 76.5 µM; in the assay on SF-539 CNS, greater than 100 µM.

Consider `C1CCCCc2nc3c(nc2CCC1)c1nc2c(nc1c1nc4c(nc31)CCCCCCCC4)CCCCCCCC2`, for which the TGI in the assay with HCC-2998 colon, in the assay on IGROV1 ovarian, in the assay on U251 CNS, in the assay on SNB-75 CNS, in the assay with SNB-19 CNS and in the assay with SF-539 CNS was greater than 100 µM each time.
